Measured values published in US12030878B2 (BRISTOL-MYERS SQUIBB COMPANY, priority 2017, dated 2024).

How the values were obtained:
Format in all cases: cell-based
human TLR7 = target: T1, human TLR7 (Homo sapiens, UniProt Q9NYK1); assay: TLR7 inhibition reporter assay (HEK-Blue SEAP); conditions: HEK-Blue cells overexpressing human TLR7, stimulated with gardiquimod 7.5 μM, 22 hour incubation
T1 construct: host or cells: HEK-Blue cells
T1 sequence (Q9NYK1 27-1049): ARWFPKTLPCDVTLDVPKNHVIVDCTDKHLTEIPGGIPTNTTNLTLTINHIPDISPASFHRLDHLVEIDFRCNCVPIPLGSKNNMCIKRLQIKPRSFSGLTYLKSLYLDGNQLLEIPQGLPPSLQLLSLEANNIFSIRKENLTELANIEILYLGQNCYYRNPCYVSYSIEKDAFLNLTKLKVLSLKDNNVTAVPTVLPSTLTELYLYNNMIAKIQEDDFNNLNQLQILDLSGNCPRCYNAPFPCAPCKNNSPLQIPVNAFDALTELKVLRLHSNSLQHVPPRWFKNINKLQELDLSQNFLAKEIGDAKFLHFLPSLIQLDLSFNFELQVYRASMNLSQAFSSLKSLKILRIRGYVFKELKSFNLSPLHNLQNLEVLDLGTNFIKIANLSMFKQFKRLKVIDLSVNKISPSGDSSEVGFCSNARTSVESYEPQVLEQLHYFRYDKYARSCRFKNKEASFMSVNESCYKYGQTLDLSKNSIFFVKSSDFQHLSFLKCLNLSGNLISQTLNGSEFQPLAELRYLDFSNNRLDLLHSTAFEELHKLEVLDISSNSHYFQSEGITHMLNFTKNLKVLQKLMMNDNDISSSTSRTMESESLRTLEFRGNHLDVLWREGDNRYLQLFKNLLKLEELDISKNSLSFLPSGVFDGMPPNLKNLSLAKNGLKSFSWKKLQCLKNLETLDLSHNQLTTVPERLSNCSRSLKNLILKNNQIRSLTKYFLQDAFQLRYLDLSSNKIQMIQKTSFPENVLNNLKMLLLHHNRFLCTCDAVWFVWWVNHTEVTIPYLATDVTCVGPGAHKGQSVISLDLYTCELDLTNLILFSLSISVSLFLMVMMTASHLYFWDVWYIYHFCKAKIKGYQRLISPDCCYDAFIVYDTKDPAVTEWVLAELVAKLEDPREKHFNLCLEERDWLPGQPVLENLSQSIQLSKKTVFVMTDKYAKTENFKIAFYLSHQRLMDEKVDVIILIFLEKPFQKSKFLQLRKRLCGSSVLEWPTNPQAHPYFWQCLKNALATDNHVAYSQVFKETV
Summary of the method: (§1)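 SEAP read-out via HEK-Blue Detection medium after 22 h at 37 °C; percent inhibition relative to agonist-plus-DMSO and known-inhibitor wells. Agonists: TLR7 gardiquimod 7.5 μM, TLR8 R848 15.9 μM, TLR9 ODN2006 5 nM. Dose range 0.05 nM–50 μM, 30 min compound pre-treatment at RT.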

human TLR9 = target: T2, human TLR9 (Homo sapiens, UniProt Q9NR96); assay: TLR9 inhibition reporter assay (HEK-Blue SEAP); conditions: HEK-Blue cells overexpressing human TLR9, stimulated with ODN2006 5 nM, 22 hour incubation
T2 construct: host or cells: HEK-Blue cells
T2 sequence (Q9NR96 26-1032): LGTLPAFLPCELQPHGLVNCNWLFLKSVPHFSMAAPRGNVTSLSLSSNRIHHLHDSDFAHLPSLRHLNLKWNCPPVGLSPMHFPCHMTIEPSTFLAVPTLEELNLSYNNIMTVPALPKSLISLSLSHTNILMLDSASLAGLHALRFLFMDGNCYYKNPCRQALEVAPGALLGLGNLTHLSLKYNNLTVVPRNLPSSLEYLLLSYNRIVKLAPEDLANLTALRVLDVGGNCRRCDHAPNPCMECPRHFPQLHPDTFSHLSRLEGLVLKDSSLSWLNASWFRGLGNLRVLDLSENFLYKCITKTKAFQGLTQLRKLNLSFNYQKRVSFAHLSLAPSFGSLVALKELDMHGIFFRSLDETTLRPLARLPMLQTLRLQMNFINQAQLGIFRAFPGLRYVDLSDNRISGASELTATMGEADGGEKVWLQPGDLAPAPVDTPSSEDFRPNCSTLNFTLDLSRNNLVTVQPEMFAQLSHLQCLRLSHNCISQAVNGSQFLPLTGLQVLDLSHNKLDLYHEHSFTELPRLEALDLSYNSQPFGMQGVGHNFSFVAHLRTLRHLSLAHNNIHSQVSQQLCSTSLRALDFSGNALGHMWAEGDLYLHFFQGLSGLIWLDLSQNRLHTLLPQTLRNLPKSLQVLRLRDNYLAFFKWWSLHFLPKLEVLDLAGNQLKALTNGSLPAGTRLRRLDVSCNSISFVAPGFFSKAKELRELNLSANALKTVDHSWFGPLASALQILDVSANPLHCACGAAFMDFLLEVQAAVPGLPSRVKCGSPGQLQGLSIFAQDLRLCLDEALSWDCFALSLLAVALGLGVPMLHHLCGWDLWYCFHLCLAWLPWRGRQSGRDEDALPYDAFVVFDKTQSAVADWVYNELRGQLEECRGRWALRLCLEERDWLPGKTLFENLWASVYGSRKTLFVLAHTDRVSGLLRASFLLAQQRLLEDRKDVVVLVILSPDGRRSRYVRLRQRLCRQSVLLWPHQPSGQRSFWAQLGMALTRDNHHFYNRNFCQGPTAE
Summary of the method: as §1

human TLR8 = target: T3, human TLR8 (Homo sapiens, UniProt Q9NR97); assay: TLR8 inhibition reporter assay (HEK-Blue SEAP); conditions: HEK-Blue cells overexpressing human TLR8, stimulated with R848 15.9 μM, 22 hour incubation
T3 construct: host or cells: HEK-Blue cells
T3 sequence (Q9NR97 27-1041): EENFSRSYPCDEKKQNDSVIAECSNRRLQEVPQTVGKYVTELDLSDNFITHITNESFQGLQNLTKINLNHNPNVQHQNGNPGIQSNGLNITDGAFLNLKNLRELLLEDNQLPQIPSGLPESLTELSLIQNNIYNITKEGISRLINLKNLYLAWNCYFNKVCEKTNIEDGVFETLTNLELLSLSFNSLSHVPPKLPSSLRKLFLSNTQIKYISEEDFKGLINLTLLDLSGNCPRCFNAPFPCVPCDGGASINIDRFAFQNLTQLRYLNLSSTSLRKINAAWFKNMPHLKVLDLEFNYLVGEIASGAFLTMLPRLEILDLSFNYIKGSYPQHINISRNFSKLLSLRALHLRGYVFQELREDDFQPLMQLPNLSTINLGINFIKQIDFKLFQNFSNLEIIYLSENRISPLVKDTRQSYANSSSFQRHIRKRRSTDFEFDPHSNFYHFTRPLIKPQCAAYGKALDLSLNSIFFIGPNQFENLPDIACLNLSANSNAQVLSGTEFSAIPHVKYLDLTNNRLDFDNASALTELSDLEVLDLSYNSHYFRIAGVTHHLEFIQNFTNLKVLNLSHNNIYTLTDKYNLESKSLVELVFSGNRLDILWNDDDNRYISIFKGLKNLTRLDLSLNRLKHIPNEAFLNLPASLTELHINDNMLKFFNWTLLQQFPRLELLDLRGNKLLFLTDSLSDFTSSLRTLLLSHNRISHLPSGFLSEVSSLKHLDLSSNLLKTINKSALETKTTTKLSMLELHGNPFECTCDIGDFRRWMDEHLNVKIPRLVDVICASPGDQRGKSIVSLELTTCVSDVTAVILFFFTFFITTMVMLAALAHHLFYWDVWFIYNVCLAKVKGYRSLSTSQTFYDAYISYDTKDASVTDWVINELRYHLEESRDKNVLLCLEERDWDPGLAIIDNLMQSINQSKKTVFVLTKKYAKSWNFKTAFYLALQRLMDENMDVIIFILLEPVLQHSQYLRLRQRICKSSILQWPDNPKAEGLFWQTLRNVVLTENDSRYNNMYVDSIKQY
Summary of the method: as §1

Compound	IC50 (human TLR7) [nM]	IC50 (human TLR9) [nM]	IC50 (human TLR8) [nM]
Cc1cc(-c2[nH]c3ccc(OCCN4CCCC(F)C4)cc3c2C(C)C)cn2ncnc12 (stereo not drawn) [Example 4, 6-(5-(2-(3-fluoropiperidin-1-yl)ethoxy)-3-isopropyl-1H-indol-2-yl)-8-methyl-[1,2,4]triazolo[1,5-a]pyridine]	> 3130	> 50000	15.4
Cc1c(-c2[nH]c3ccc(OC4CCN(C(C)C)CC4)cc3c2C(C)C)cn(C)c(=O)c1C [Example 48, 5-(3-isopropyl-5-((1-isopropylpiperidin-4-yl)oxy)-1H-indol-2-yl)-1,3,4-trimethylpyridin-2(1H)-one]	6.9	5040	1
Cc1c(-c2[nH]c3ccc(OC4CCN(C5COC5)CC4)cc3c2C(C)C)cn(C)c(=O)c1C [Example 50, 5-(3-isopropyl-5-((1-(oxetan-3-yl)piperidin-4-yl)oxy)-1H-indol-2-yl)-1,3,4-trimethylpyridin-2(1H)-one]	123	> 50000	21.3
Cc1cc(-c2[nH]c3ccc(O[C@H]4CCCN(CC(=O)N(C)C)C4)cc3c2C(C)C)cn(C)c1=O [Example 82, (S)-2-(3-((2-(1,5-dimethyl-6-oxo-1,6-dihydropyridin-3-yl)-3-isopropyl-1H-indol-5-yl)oxy)piperidin-1-yl)-N,N-dimethylacetamide]	17.3	40600	27.6
COCCN1CCC(COc2ccc3[nH]c(-c4cc(C)c(=O)n(C)c4)c(C(C)C)c3c2)CC1 [Example 74, 5-(3-isopropyl-5-((1-(2-methoxyethyl)piperidin-4-yl)methoxy)-1H-indol-2-yl)-1,3-dimethylpyridin-2(1H)-one]	20.7	29200	3.9
Cc1c(-c2[nH]c3ccc(OC4CCN(C(C)C)CC4)cc3c2C(C)C)cn(C)c(=O)c1Cl [Example 45]	9.6	2200	2.2

The next lines start with the values.

IC50 (human TLR7) [nM]	IC50 (human TLR9) [nM]	IC50 (human TLR8) [nM]	Compound
70.7	2670	3.1	Cc1cc(-c2[nH]c3ccc(OC4CCN(C(C)C)CC4)cc3c2C(C)C)ccn1 [Example 186, 3-isopropyl-5-((1-isopropylpiperidin-4-yl)oxy)-2-(2-methylpyridin-4-yl)-1H-indole]
1.2	6040	3.8	Cc1cc(-c2[nH]c3ccc(OCC4CN(CCS(C)(=O)=O)C4)cc3c2C(C)C)cn2ncnc12 [Example 92, 6-(3-isopropyl-5-((1-(2-(methylsulfonyl)ethyl)azetidin-3-yl)methoxy)-1H-indol-2-yl)-8-methyl-[1,2,4]triazolo[1,5-a]pyridine]
35.2	858	15.3	COc1ccc(-c2[nH]c3ccc(OCC(=O)N(C)C4CCCNC4)cc3c2C(C)C)cc1OC (stereo not drawn) [Example 127, 2-((2-(3,4-dimethoxyphenyl)-3-isopropyl-1H-indol-5-yl)oxy)-N-methyl-N-(piperidin-3-yl)acetamide]
330	354	220	Cc1cc(-c2[nH]c3ccc(OCC(=O)N4CCCCC4C4CCNCC4)cc3c2C(C)C)ccn1 (stereo not drawn) [Example 143, 1-([2,4′-bipiperidin]-1-yl)-2-((3-isopropyl-2-(2-methylpyridin-4-yl)-1H-indol-5-yl)oxy)ethan-1-one]
771	937	98.4	Cc1cc(-c2[nH]c3ccc(OCC(=O)NCCC4CCCNC4)cc3c2C(C)C)ccn1 (stereo not drawn) [Example 146, 2-((3-isopropyl-2-(2-methylpyridin-4-yl)-1H-indol-5-yl)oxy)-N-(2-(piperidin-3-yl)ethyl)acetamide]
4930	> 50000	134	Cc1cc(-c2[nH]c3ccc(OCc4ccc(N5CCOCC5)cc4)cc3c2C(C)C)ccn1 [Example 168, 4-(4-(((3-isopropyl-2-(2-methylpyridin-4-yl)-1H-indol-5-yl)oxy)methyl)phenyl)morpholine]
